Laboratory results published in PubChem BioAssay (NCI).
Several values for one entry are separate records, joined by “and”; a condition that tells them apart may be missing. Identical values can stand only once.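 1) Cells in 96-well plates. 2) Compound, 48 h, 5 concentrations. 3) Linear interpolation between surrounding doses. 4) Unreached endpoint = highest concentration. TGI denotes the concentration required for complete inhibition of growth.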

How the values were obtained:
Test in all cases: NCI-60 cell line screen, 48 h
[1] = system: HCC-2998 colon
[2] = system: K-562 leukemia
[3] = system: MALME-3M melanoma
[4] = system: MCF7 breast
[5] = system: MDA-MB-435
[6] = system: NCI-H460 lung
[7] = system: SF-539 CNS
[8] = system: SNB-19 CNS
[9] = system: SNB-75 CNS
[10] = system: TK-10 renal

SMILES	TGI [1]	TGI [2]	TGI [3]	TGI [4]	TGI [5]	TGI [6]	TGI [7]	TGI [8]	TGI [9]	TGI [10]
O=C(NNC1=NCCN1)c1ccco1	> 100 µM	> 100 µM	> 100 µM	> 100 µM	> 100 µM	> 100 µM	> 100 µM	> 100 µM	> 100 µM	> 100 µM
COC(=O)C1CCC(=O)N1CN(C(C)=O)c1ccccc1 (stereo not drawn)		> 100 µM	> 100 µM	> 100 µM	> 100 µM	> 100 µM	> 100 µM	> 100 µM	> 100 µM	> 100 µM
O=[N+]([O-])/C=C1\COCc2cc3c(cc21)OCO3	32.9 µM	> 100 µM		35.8 µM	28.2 µM	93.8 µM	52.4 µM		38.9 µM	50 µM
O=C(c1ccccc1)c1ccc(COc2ccc(C(c3c(O)c4ccccc4oc3=O)c3c(O)c4ccccc4oc3=O)cc2)cc1	33.5 µM	53.3 µM		67.5 µM	46.8 µM	48.6 µM	46.4 µM	58.6 µM	32.7 µM	32.8 µM
CCCN(C(=O)c1c(Cl)nnc(Cl)c1C(=O)c1cc(Cl)nnc1Cl)c1cc(Cl)nnc1Cl	32.3 µM	27.4 µM		16.8 µM	37 µM	70.4 µM	40 µM	87.7 µM	32.5 µM	32.2 µM
COC(=O)C1C(OC(=O)c2ccccc2)CC2CCC1N2C(N)=O (stereo not drawn)	> 100 µM	> 100 µM	> 100 µM	> 100 µM	> 100 µM	> 100 µM	> 100 µM	> 100 µM	> 100 µM	
CN(/N=C(\C(=O)O)c1ccccc1)C1=NCCCN1	> 100 µM	> 100 µM	> 100 µM	> 100 µM	> 100 µM	> 100 µM	> 100 µM		> 100 µM	> 100 µM
O=C(CN1CCNCCN(CC(=O)N2CCCCC2)CCNCC1)N1CCCCC1		> 100 µM	> 100 µM	> 100 µM	> 100 µM	> 100 µM	> 100 µM	> 100 µM	> 100 µM	> 100 µM
CSc1nc(N)c(NC2OC(CO)C(O)C2O)c(=O)[nH]1 (stereo not drawn)		> 100 µM	> 100 µM	> 100 µM	> 100 µM	> 100 µM	> 100 µM	> 100 µM	> 100 µM	> 100 µM
Fc1ccc2nc3n(c2c1)C(c1c(F)cccc1F)SC3 (stereo not drawn)	> 100 µM		> 100 µM	> 100 µM	> 100 µM	> 100 µM	> 100 µM	> 100 µM	> 100 µM	> 100 µM
O=c1cc(-c2cccc(Cl)c2)[nH]c2ncccc12			> 100 µM	> 100 µM	0.0382 µM	> 100 µM	0.374 µM	24.1 µM	> 56.1 µM	> 100 µM
COc1cccc(/C=C2/Sc3scc(-c4ccccc4)[n+]3C2=O)c1O	30.7 µM			> 100 µM	> 100 µM	37.9 µM	47.6 µM	67 µM	> 100 µM	68.4 µM
NNC(=O)c1ccc(-n2nnc(C(=O)NN)c2C(=O)NN)cc1	> 100 µM	> 100 µM	> 100 µM	> 100 µM	> 100 µM	> 100 µM		> 100 µM		> 100 µM
COC(=O)C1CC2(CCC1=O)Cc1ccccc1C2=O (stereo not drawn)	> 100 µM	> 100 µM	> 100 µM	> 100 µM		> 100 µM	> 100 µM	> 100 µM	> 100 µM	> 100 µM
CN(C)CCNC(=O)c1cccc2c(NCC(=O)O)c3ccccc3nc12		> 100 µM	35.9 µM	27.8 µM	32.9 µM			72.1 µM	64 µM	> 100 µM
COc1cc(OC)c(/C=C2\N=C(C)N(Nc3nnc(NN4C(=O)/C(=C/c5c(OC)cc(OC)cc5OC)N=C4C)c4ccccc34)C2=O)c(OC)c1		> 100 µM				> 100 µM	> 100 µM	> 100 µM	> 100 µM	
COc1ccc(N2C(=O)C3c4[nH]c5ccc(C)cc5c4C4CCC(C)CC4C3C2=O)cc1 (stereo not drawn)		> 100 µM	> 100 µM		> 100 µM	> 100 µM	> 100 µM	> 100 µM		> 100 µM
CN(CCO)c1nc2c(c(=O)[nH]1)CCC2	> 100 µM	> 100 µM	> 100 µM			> 100 µM	> 100 µM	> 100 µM	> 100 µM	> 100 µM
COc1cc2cc(C(=O)N3CC(CCl)c4ccc(O)cc43)[nH]c2c(OC)c1OC (stereo not drawn)	0.00936 µM		0.0178 µM		0.0158 µM		0.00881 µM	0.453 µM and 0.21 µM	0.0652 µM	22.4 µM
[N-]=[N+]=Nc1c(-c2ccccc2)c(Cl)nc2ccccc12	> 100 µM	> 100 µM	> 100 µM		> 100 µM	> 100 µM	> 100 µM	> 100 µM	> 100 µM	> 100 µM
C1=NCCNCCN=Cc2ccc(cc2)OCc2cccc(n2)COc2ccc1cc2		> 100 µM	> 100 µM	> 100 µM	> 100 µM	> 100 µM	> 100 µM	> 100 µM	> 100 µM	
Cc1c(/C=N/NC(=S)Nc2ccccc2Cl)c(=O)n(-c2ccccc2)n1C		> 100 µM	79.9 µM	> 100 µM	> 100 µM	> 100 µM	> 100 µM	> 100 µM	54.6 µM	91.7 µM
O=C(O[C@H]1[C@@H](O)[C@H](n2cnc3c(Cl)ncnc32)O[C@@H]1COC(c1ccccc1)(c1ccccc1)c1ccccc1)c1ccccc1	41.9 µM	> 100 µM		23.4 µM	> 100 µM	64.9 µM	47.3 µM	> 100 µM	> 100 µM	> 100 µM
Cc1ccccc1N=Nc1ccc(N=Nc2c(O)ccc3ccccc23)c(C)c1		> 100 µM	> 100 µM		> 100 µM			> 100 µM	> 100 µM	> 100 µM

SMILES	TGI [1]	TGI [2]	TGI [3]	TGI [4]	TGI [5]	TGI [6]	TGI [7]	TGI [8]	TGI [9]	TGI [10]
N#Cc1c(N)oc(-c2cccc([N+](=O)[O-])c2)c1C#N	33.6 µM		61.6 µM	> 100 µM	> 100 µM		57.2 µM	74.6 µM	98.2 µM	49.7 µM
N#CC(C#N)=Cc1ccc2c(c1)OC(Cl)O2 (stereo not drawn)		> 100 µM	34.8 µM	> 100 µM	35.7 µM		38.6 µM	66.4 µM	75.4 µM	68.1 µM
CC12NN=NC1C(=O)NC2=O (stereo not drawn)	> 100 µM	> 100 µM				> 100 µM	> 100 µM	> 100 µM	> 100 µM	> 100 µM
CC1CCCc2c(C#N)c(N)nc(-c3ccc(Cl)cc3)c21 (stereo not drawn)		> 100 µM	85.1 µM	84.5 µM	> 100 µM	59 µM	33 µM	> 100 µM	81.6 µM	> 100 µM
Cc1ccc(/C=N/Nc2cnccn2)s1	> 100 µM	> 100 µM	> 100 µM	> 100 µM	> 100 µM		> 100 µM	> 100 µM	> 100 µM	> 100 µM
O=c1oc2ccccc2c2c(=O)c3ccc(OC/C(=N/O)c4ccc(Cl)cc4)cc3oc12		12.1 µM		49.6 µM	7.89 µM	33 µM	23.8 µM	33.1 µM		
COc1ccc(-c2c(N)n(-c3nc4ccccc4s3)c(=O)c3cc([N+](=O)[O-])ccc23)cc1		> 100 µM	93.7 µM	> 100 µM	> 100 µM	32.5 µM	19.6 µM	> 100 µM	24.7 µM	> 100 µM
C/C(=N\Nc1nc2ccccc2s1)c1ncccn1	11.9 µM	> 100 µM	> 100 µM	> 100 µM	> 100 µM	15.6 µM	20 µM	> 100 µM	5.58 µM	
O=C1C2CC=CCC2C(=O)N1n1c(-c2ccccc2)n[nH]c1=O (stereo not drawn)	> 100 µM	> 100 µM	> 100 µM	> 100 µM	> 100 µM	> 100 µM	> 100 µM	> 100 µM		> 100 µM
NC(N)=N/N=C/c1c(-c2ccccc2)nc2n1ccc1nc(-c3ccccc3)c(/C=N/N=C(N)N)n12		> 100 µM	84 µM	> 100 µM	> 100 µM	> 100 µM	> 100 µM	> 100 µM	> 100 µM	> 100 µM
CCOC(=O)c1c(N2CCCC2)nsc1Nc1ccccc1	> 100 µM	> 100 µM	> 100 µM			> 100 µM	> 100 µM	> 100 µM	> 100 µM	> 100 µM
CN(C)CCCNC(=O)N/N=C/c1cccc([N+](=O)[O-])c1		> 100 µM	> 100 µM			> 100 µM	> 100 µM	> 100 µM	> 100 µM	> 100 µM
COc1ccc(NS(=O)CCCc2ccccc2)cc1 (stereo not drawn)		> 100 µM	> 100 µM	> 100 µM	> 100 µM	> 100 µM	> 100 µM	> 100 µM		> 100 µM
CN(C(=O)Cc1cc(Cl)c(Cl)cc1N=C=S)[C@H]1CCCC[C@@H]1N1CCCC1		5.89 µM	31.8 µM	30.1 µM	17 µM	22 µM	46 µM	27.4 µM	27.9 µM	23.5 µM
CC1=NN(c2ccccc2)C(=O)/C1=C/c1ccc(O)cc1	> 100 µM	> 100 µM	> 100 µM	> 100 µM	> 100 µM	> 100 µM	> 100 µM	> 100 µM		> 100 µM
CN(C)c1ccc(N=Nc2ccc3nc[nH]c3c2)cc1		75.2 µM	53 µM		47.7 µM	37.4 µM	36.9 µM	> 100 µM	68.9 µM	52.8 µM
CCOC(=O)/C(C(=S)Nc1ccccc1)=C(/N)N1CCCC1	> 100 µM	> 100 µM	> 100 µM	> 100 µM	> 100 µM	> 100 µM	> 100 µM	> 100 µM		> 100 µM
Cc1ccc(N2C(=O)C3c4[nH]c5ccccc5c4C4CCC(C(C)(C)C)CC4C3C2=O)cc1 (stereo not drawn)	56.1 µM	17.5 µM	22.6 µM	> 46 µM	42 µM	17.2 µM		21.2 µM		15.7 µM
CCCCCCNC(=O)c1cnc(Cl)cn1		40.2 µM	31.1 µM	23.6 µM	28.9 µM	37.3 µM	35.4 µM	43.7 µM	49.1 µM	> 100 µM
CC(C)[C@@H]1NC(=O)[C@H]2N=C(O[C@@H]2C)[C@@H]2CCCN2C(=O)[C@H](Cc2ccccc2)NC(=O)[C@@H]2CSC(=N2)[C@@H](Cc2ccccc2)NC(=O)[C@@H]2CSC1=N2	> 50 µM	> 50 µM	> 50 µM	> 50 µM	> 50 µM		> 50 µM	> 50 µM	6.28 µM	> 50 µM
CCO[C@]12C[C@H](OC)[C@@]3(O)CC(C1[C@H]3OCc1ccccc1)C13C4C2[C@H](OC)C1[C@](COC)(CN4CC)[C@H](O)C[C@@H]3OC (stereo partly drawn)	> 100 µM	> 100 µM				> 100 µM	> 100 µM	> 100 µM	> 100 µM	> 100 µM
C=C1CC2OC2(C(=O)O[C@H]2CCC3[C@@H]4CCC5=CC(=O)CC[C@]5(C)C4CC[C@@]32C)C1=O (stereo partly drawn)	74.5 µM	7.03 µM	16.5 µM		48.7 µM	28.9 µM	18.1 µM	36.3 µM	33.9 µM	15.1 µM
CNC(=O)N1CN(c2ccccc2)C2(CCN(CCCC(=O)c3ccc(F)cc3)CC2)C1=O	22.2 µM	49 µM	35.3 µM	16 µM			34 µM	> 100 µM	> 100 µM	49.5 µM
O=C(Cn1c2c(c3ccccc31)CCCC2)NC1CCCCC1	> 100 µM	> 100 µM	> 100 µM	> 100 µM	> 100 µM	> 100 µM	> 100 µM	> 100 µM		> 100 µM
